Reference: patent publication US5840917A, “Phosphorylamides, their preparation and use” (Takeda Chemical Industries, Ltd., priority 1995, dated 1998)
Read-outs that look alike come from different tables or passages of the source.

Biological target: T1, Helicobacter pylori-derived urease (Helicobacter pylori, UniProt P69996)
T1 construct: an urease solution prepared from Helicobacter pylori; endogenous in cells
Experiment: Screening of urease inhibitors (ammonia yield from urea)
Format: biochemical
Protocol: Screening of Urease Inhibitors
One hundred (100) μl of 100 mM Bis-Tris buffer (pH 6.5) and 60 μl of an urease solution prepared from Helicobacter pylori were added to 20 μl of a test drug dissolved in 0.1% dimethylformamide solution. The mixture was incubated at room temperature for 30 minutes, and then 20 μl of 100 mM urea was added. The mixture was kept at room temperature for 10 minutes, and then the yielded ammonia in the incubation mixture was measured using a commercial test kit (Ammonia Test Wako®; Wako Pure Chemical). The percent inhibition against the yield of ammonia in the solvent addition group was calculated to obtain the IC50 value.

T1 sequence (P69996 whole entry, looked up): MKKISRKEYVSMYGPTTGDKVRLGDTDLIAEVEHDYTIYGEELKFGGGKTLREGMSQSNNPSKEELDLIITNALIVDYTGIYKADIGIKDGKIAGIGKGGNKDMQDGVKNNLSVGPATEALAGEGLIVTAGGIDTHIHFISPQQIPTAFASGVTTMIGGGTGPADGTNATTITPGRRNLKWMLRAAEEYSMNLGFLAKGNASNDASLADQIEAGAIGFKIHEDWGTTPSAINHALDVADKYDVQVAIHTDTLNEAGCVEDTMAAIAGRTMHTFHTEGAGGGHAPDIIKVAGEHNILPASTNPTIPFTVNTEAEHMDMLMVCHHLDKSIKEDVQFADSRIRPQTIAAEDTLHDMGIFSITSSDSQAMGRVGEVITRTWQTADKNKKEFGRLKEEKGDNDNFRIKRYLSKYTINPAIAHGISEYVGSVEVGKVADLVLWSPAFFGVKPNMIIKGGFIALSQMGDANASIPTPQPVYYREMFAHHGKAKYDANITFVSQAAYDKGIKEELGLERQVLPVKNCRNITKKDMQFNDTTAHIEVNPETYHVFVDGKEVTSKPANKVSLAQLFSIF

Structure (SMILES) | IC50 | IC50 (Bis-Tris pH 6.5, room temperature, 30 min preincubation, 10 min with urea, read-out: IC50, inhibitory effect against Helicobacter pylori-derived urease)
NP(N)(=O)NC(=O)c1sccc1Br [Example 16, N-(Diaminophosphinyl)-3-bromo-2-thiophenecarboxamide] | 0.8 nM | 
NP(N)(=O)NC(=O)c1cc2ccccc2o1 [Example 67, N-(Diaminophosphinyl)-2-benzofurancarboxamide] | 6.1 nM | 
Cc1ccsc1C(=O)NP(N)(N)=O [Example 4, N-(Diaminophosphinyl)-3-methyl-2-thiophenecarboxamide] | 6.8 nM | 
NP(N)(=O)NC(=O)COc1ccc([N+](=O)[O-])cc1 [Example 52, N-(Diaminophosphinyl)-4-nitrophenoxyacetamide] | 12 nM | 
NP(N)(=O)NC(=O)Cc1ccccc1 [Reference Example 6, N-(Diaminophosphinyl)-phenylacetamide] | 15 nM | 
COc1ccc(C(=O)NP(N)(N)=O)s1 [Example 22, N-(Diaminophosphinyl)-5-methoxy-2-thiophenecarboxamide] | 12 nM | 
NP(N)(=O)NC(=O)CCc1ccc(Cl)cc1 [compound 39, N-(Diaminophosphinyl)-3-(4-chlorophenyl)propionamide] | 5.9 nM | 
NP(N)(=O)NC(=O)c1ccc(Cl)o1 [Example 42, N-(Diaminophosphinyl)-5-chloro-2-furancarboxamide] | 2.3 nM | 
COc1ccc(OCC(=O)NP(N)(N)=O)cc1 [Example 53, N-(Diaminophosphinyl)-4-methoxyphenoxyacetamide] | 7.9 nM | 
NP(N)(=O)NC(=O)C=Cc1ccc(F)cc1 [compound 20, N-(Diaminophosphinyl)-4-fluorocinnamamide] | 6.5 nM | 
NP(N)(=O)NC(=O)c1csc(C(F)F)c1 [Example 31, N-(Diaminophosphinyl)-5-difluoromethyl-3-thiophenecarboxamide] | 7.1 nM | 
Cc1cc(C(=O)NP(N)(N)=O)c(Cl)s1 [Example 89, N-(Diaminophosphinyl)-2-chloro-5-methyl-3-thiophenecarboxamide] | 2.6 nM | 
NP(N)(=O)NC(=O)CCc1cccc(F)c1 [compound 42, N-(Diaminophosphinyl)-3-(3-fluorophenyl) propionamide] | 22 nM | 
CCOc1ccc2sc(SCC(=O)NP(N)(N)=O)nc2c1 [Example 66, N-(Diaminophosphinyl)-5-ethoxy-2-benzothiazolylthioacetamide] |  | 10 nM
NP(N)(=O)NC(=O)c1ccccc1[N+](=O)[O-] [compound 18, N-(Diaminophosphinyl)-2-nitrobenzamide] | 5.1 nM | 
NP(N)(=O)NC(=O)CSc1ccc(F)cc1 [Example 62, N-(Diaminophosphinyl)-4-fluorophenylthioacetamide] | 2.8 nM | 
NP(N)(=O)NC(=O)c1sc2ccccc2c1Cl [Example 74, N-(Diaminophosphinyl)-3-chloro-2-benzothiophenecarboxamide] | 5.1 nM | 
Cc1cscc1C(=O)NP(N)(N)=O [Example 85, N-(Diaminophosphinyl)-4-methyl-3-thiophenecarboxamide] | 2.2 nM | 
NP(N)(=O)NC(=O)CSc1ccccc1 [Example 61, N-(Diaminophosphinyl)-phenylthioacetamide] | 2.8 nM | 
NP(N)(=O)NC(=O)c1c(F)cccc1F [Reference Example 9, N-(Diaminophosphinyl)-2,6-difluorobenzamide] | 9.7 nM | 

Structure (SMILES) | IC50 | IC50 (Bis-Tris pH 6.5, room temperature, 30 min preincubation, 10 min with urea, read-out: IC50, inhibitory effect against Helicobacter pylori-derived urease)
Cc1c(Cl)sc(Cl)c1C(=O)NP(N)(N)=O [Example 88, N-(Diaminophosphinyl)-2,5-dichloro-4-methyl-3-thiophenecarboxamide] | 3.3 nM | 
NP(N)(=O)NC(=O)c1cc(Cl)c(Cl)s1 [Example 36, N-(Diaminophosphinyl)-4,5-dichloro-2-thiophenecarboxamide] | 7.4 nM | 
Cc1csc(C(=O)NP(N)(N)=O)c1Cl [Example 90, N-(Diaminophosphinyl)-3-chloro-4-methyl-2-thiophenecarboxamide] | 6.3 nM | 
NP(N)(=O)NC(=O)Cc1cccs1 [Example 80, N-(Diaminophosphinyl)-2-thienylacetamide] | 4.4 nM | 
NP(N)(=O)NC(=O)c1ccsc1C(F)F [Example 20, N-(Diaminophosphinyl)-2-difluoromethyl-3-thiophenecarboxamide] | 2.5 nM | 
Cc1oc(Cl)cc1C(=O)NP(N)(N)=O [Example 50, N-(Diaminophosphinyl)-5-chloro-2-methyl-3-furancarboxamide] | 7.5 nM | 
NP(N)(=O)NC(=O)c1ccccc1C(F)(F)F [compound 24, N-(Diaminophosphinyl)-2-trifluoromethylbenzamide] | 8 nM | 
NP(N)(=O)NC(=O)c1cccc(F)c1 [Reference Example 8, N-(Diaminophosphinyl)-3-fluorobenzamide] | 4.5 nM | 
CCc1occc1C(=O)NP(N)(N)=O [Example 51, N-(Diaminophosphinyl)-2-ethyl-3-furancarboxamide] | 22 nM | 
NP(N)(=O)NC(=O)c1nc2ccccc2s1 [Example 70, N-(Diaminophosphinyl)-2-benzothiazolecarboxamide] | 13 nM | 
NP(N)(=O)NC(=O)c1csc([N+](=O)[O-])c1 [Example 21, N-(Diaminophosphinyl)-5-nitro-3-thiophenecarboxamide] | 4.3 nM | 
NP(N)(=O)NC(=O)C=Cc1ccc(Cl)cc1 [compound 31, N-(Diaminophosphinyl)-4-chlorocinnamamide] | 71 nM | 
NP(N)(=O)NC(=O)c1ccc(Cl)cc1 [compound 7, N-(Diaminophosphinyl)-4-chlorobenzamide] | 6.9 nM | 
NP(N)(=O)NC(=O)C=Cc1ccccc1 [Reference Example 4, N-(Diaminophosphinyl)cinnamamide] | 10 nM | 
NP(N)(=O)NC(=O)c1cc(Br)c(Br)s1 [Example 7, N-(Diaminophosphinyl)-4,5-dibromo-2-thiophenecarboxamide] | 4.3 nM | 
NP(N)(=O)NC(=O)C=Cc1ccc(F)cc1F [compound 34, N-(Diaminophosphinyl)-2,4-difluorocinnamamide] | 22 nM | 
NP(N)(=O)NC(=O)CSc1nc2ccccc2o1 [Example 63, N-(Diaminophosphinyl)-2-benzoxazolylthioacetamide] | 5.6 nM | 
NP(N)(=O)NC(=O)C=Cc1ccccc1[N+](=O)[O-] [compound 33, N-(Diaminophosphinyl)-2-nitrocinnamamide] | 8.3 nM | 
NP(N)(=O)NC(=O)C=Cc1cc(Br)cs1 [Example 77, N-(Diaminophosphinyl)-3-(4-bromo-2-thienyl)propenamide] | 8.1 nM | 
CCc1ccsc1C(=O)NP(N)(N)=O [Example 27, N-(Diaminophosphinyl)-3-ethyl-2-thiophenecarboxamide] | 4.1 nM | 

Structure (SMILES) | IC50 | IC50 (Bis-Tris pH 6.5, room temperature, 30 min preincubation, 10 min with urea, read-out: IC50, inhibitory effect against Helicobacter pylori-derived urease)
NP(N)(=O)NC(=O)COc1cccc(Cl)c1 [Example 58, N-(Diaminophosphinyl)-3-chlorophenoxyacetamide] | 3 nM | 
NP(N)(=O)NC(=O)Cc1ccsc1 [Example 81, N-(Diaminophosphinyl)-3-thienylacetamide] | 7.9 nM | 
NP(N)(=O)NC(=O)c1cc(Br)cs1 [Example 8, N-(Diaminophosphinyl)-4-bromo-thiophenecarboxamide] | 4.3 nM | 
Cc1cc(C)c(C(=O)NP(N)(N)=O)s1 [Example 91, N-(Diaminophosphinyl)-3,5-dimethyl-2-thiophenecarboxamide] | 6.3 nM | 
NP(N)(=O)NC(=O)c1ccc2ccccc2c1 [compound 28, N-(Diaminophosphinyl)-2-naphthalenecarboxamide] | 35 nM | 
NP(N)(=O)NC(=O)COc1ccc(Cl)cc1 [Example 55, N-(Diaminophosphinyl)-4-chlorophenoxyacetamide] | 3 nM | 
Cc1cc(C)c(C)c(OCC(=O)NP(N)(N)=O)c1 [Example 56, N-(Diaminophosphinyl)-2,3,5-trimethylphenoxyacetamide] | 41 nM | 
COc1ccc(C(=O)NP(N)(N)=O)cc1 [Reference Example 12, N-(diaminophosphinyl)-4-methoxybenzamide] | 44 nM | 
Cc1cc(C(=O)NP(N)(N)=O)sc1Br [Example 29, N-(Diaminophosphinyl)-5-bromo-4-methyl-2-thiophenecarboxamide] | 8.1 nM | 
Cc1sc(C(=O)NP(N)(N)=O)cc1Cl [Example 34, N-(Diaminophosphinyl)-4-chloro-5-methyl-2-thiophenecarboxamide] | 12 nM | 
Cc1nc2cc(C(=O)NP(N)(N)=O)ccc2o1 [Example 68, N-(Diaminophosphinyl)-2-methyl-5-benzoxazolecarboxamide] | 18 nM | 
Cc1ccc2c(Cl)c(C(=O)NP(N)(N)=O)sc2c1 [Example 71, N-(Diaminophosphinyl)-3-chloro-6-methylbenzothiophenecarboxamide] | 1.9 nM | 
NP(N)(=O)NC(=O)c1ccc(C(F)(F)F)cc1 [compound 19, N-(Diaminophosphinyl)-4-trifluoromethylbenzamide] | 12 nM | 
NP(N)(=O)NC(=O)C=Cc1nc2ccccc2o1 [Example 69, N-(Diaminophosphinyl)-3-(2-benzoxazolyl)propenamide] | 9.7 nM | 
Nc1ccccc1CCC(=O)NP(N)(N)=O [compound 43, N-(Diaminophosphinyl)-3-(2-aminophenyl) propionamide] | 71 nM | 
Cc1c(C(=O)NP(N)(N)=O)csc1Cl [Example 87, N-(Diaminophosphinyl)-5-chloro-4-methyl-3-thiophenecarboxamide] | 2.5 nM | 
NP(N)(=O)NC(=O)c1cc(Br)sc1Cl [Example 86, N-(Diaminophosphinyl)-5-bromo-2-chloro-3-thiophenecarboxamide] | 0.9 nM | 
NP(N)(=O)NC(=O)CSc1nc2ccccc2s1 [Example 64, N-(Diaminophosphinyl)-2-benzothiazolylthioacetamide] | 2.9 nM | 
